Results on 44 compounds are retold here after patent publication US20260285857A1, “BICYCLIC AND HETEROCYCLIC AMIDE COMPOUNDS” (priority 2024, published 2026).

Molecules are shown by their SMILES.

For one experiment, the system named is immunoglobulin light chain protein WIL-FL T46L. Kind of experiment: Differential scanning fluorimetry (thermal shift) assay. It is filed as binding. As to conditions: Table A; temperature shift [Tm]compound-[Tm]vehicle; recombinant WIL-FL T46L.
On to `Cc1cc(N2CC[C@](C)(c3ccccc3)C2)cn2nc(C(=O)N3C[C@@H]4C[C@H]3C4C(=O)O)nc12` (some centres unmarked) [Compound 211], for which the DSF entry was “***** (>2.5° C.=*****)”.
Same read-out and setting: for `Cc1cc(N2CC[C@](C)(c3ccccc3)C2)cn2nc(C(=O)NC34CC3CN(c3cccc(C(=O)O)n3)C4)nc12` (some centres unmarked) [Compound 232] the value was “***** (>2.5° C.=*****)”.
Same read-out and setting: in the case of `CCc1cc(N2CC[C@](C)(c3ccccc3)C2)cn2nc(C(=O)NC)nc12` [Compound 339] it was “***** (>2.5° C.=*****)”.
On the same count and under the same terms, in the case of `Cc1cc(N2CC[C@](C)(c3ccccc3)C2)cn2nc(C34CC(CO)(CO3)C4C#N)nc12` (some centres unmarked) [Compound 49] it was “***** (>2.5° C.=*****)”; in that of `Cc1cc(N2CC[C@](C)(c3ccccc3)C2)cn2nc(C(=O)N[C@@H]3CC[C@@H]3O)nc12` [Compound 161], “***** (>2.5° C.=*****)”.
As for `Cc1cc(N2CC[C@@](C)(c3cccc(F)c3)C2)cn2nc(C(=O)NCC(C)(C)O)nc12` [Compound 382], the DSF entry is reported as “***** (>2.5° C.=*****)”.
Same read-out and setting: for `Cc1cc(N2CCC(C)(c3nn[nH]n3)C2)cn2nc(C(=O)N3C[C@@H]4CN(c5cccc(C(=O)O)n5)C[C@@H]4C3)nc12` (some centres unmarked) [Compound 401, 6-[5-[8-methyl-6-[3-methyl-3-(2H-tetrazol-5-yl)pyrrolidin-1-yl]-[1,2,4]triazolo[1,5-a]pyridine-2-carbonyl]-1,3,3a, 4,6,6a-hexahydropyrrolo[3,4-c]pyrrol-2-yl]pyridine-2-carboxylic acid] the value was “* (0-0.5° C.=*)”; for `Cc1cc(N2CC[C@](C)(c3ccccc3)C2)cn2nc(C34CC(CO3)C4Cn3cc(C(N)=O)nn3)nc12` (some centres unmarked) [Compound 92], “***** (>2.5° C.=*****)”; for `Cc1cc(N2CC[C@@](c3ccccc3)(C(F)F)C2)cn2nc(C(=O)NCC(C)(C)O)nc12` [Compound 327], “***** (>2.5° C.=*****)”.
On the same count and under the same terms, for `Cc1cc(N2CC[C@](C)(c3ccccc3)C2)cn2nc(C34CC(CO3)C4CN3CCNC(=O)C3)nc12` (some centres unmarked) [Compound 84] the value was “***** (>2.5° C.=*****)”; for `C[C@@]1(c2ccccc2)CCN(c2cc(CO)c3nc(C(=O)N4CC5CN(c6cccc(C(=O)O)n6)CC5C4)nn3c2)C1` (some centres unmarked) [Compound 347], “***** (>2.5° C.=*****)”; for `Cc1cc(N2CC[C@](C)(c3ccccc3)C2)cn2nc(C34CC(N5CC6C(C5)C6C(=O)O)(CO3)C4)nc12` (some centres unmarked) [Compound 63], “***** (>2.5° C.=*****)”.
On the same count and under the same terms, in the case of `CNC(=O)c1nc2c(CO)cc(N3CC[C@](C)(c4ccccc4)C3)cn2n1` [Compound 351] it was “***** (>2.5° C.=*****)”.
As for `Cc1cc(N2CCC(C)(O)C2)cn2nc(C(=O)N3CC4CN(c5cccc(C(=O)O)n5)CC4C3)nc12` (centres unmarked) [Compound 295], the DSF entry is “* (0-0.5° C.=*)”.
Still for that read-out and setting: in the case of `Cc1cc(N2CCC(C)(c3ccccc3O)C2)cn2nc(C(=O)N3CC[C@@]4(CCN(c5cccc(C(=O)O)n5)C4)C3)nc12` (some centres unmarked) [Compound 410] it was “*** (>1-1.5° C.=***)”; in that of `Cc1cc(N2CC[C@](C)(c3ccccc3)C2)cn2nc(C(=O)NC3CC4(CCC4N4CC5C(C4)C5C(=O)O)C3)nc12` (stereo partly drawn) [Compound 31, 3-[2-[[8-methyl-6-[(3R)-3-methyl-3-phenyl-pyrrolidin-1-yl]-[1,2,4]triazolo[1,5-a]pyridine-2-carbonyl]amino]spiro[3.3]heptan-7-yl]-3-azabicyclo[3.1.0]hexane-6-carboxylic acid], “***** (>2.5° C.=*****)”.
With `Cc1cc(N2CC(C)(c3ccccc3)C2)cn2nc(C(=O)N3CC[C@@]4(CCN(c5cccc(C(=O)O)n5)C4)C3)nc12` [Compound 398], the DSF result is recorded as “***** (>2.5° C.=*****)”.
For `Cc1cc(N2CC[C@@](C)(c3ccccc3)C2)cn2nc(C(=O)NCC(O)C(F)(F)F)nc12` (some centres unmarked) [Compound 202], the DSF entry is reported as “***** (>2.5° C.=*****)”.
Still for that read-out and setting: in the case of `Cc1cc(N2CC[C@](C)(c3ccccc3)C2)cn2nc(C(=O)NC3CCC(c4ccnc(C(=O)O)c4)CC3)nc12` (some centres unmarked) [Compound 226] it was “***** (>2.5° C.=*****)”; in that of `Cc1cc(N2CC[C@](C)(c3ccccc3)C2)cn2nc(C(=O)N3CCC4(CCN(c5ncn[nH]5)C4)C3)nc12` (some centres unmarked) [Compound 236], “***** (>2.5° C.=*****)”; in that of `Cc1cc(OC[C@H](C)c2ccccc2)cn2nc(C(=O)NC3CCN(c4cccc(C(=O)O)n4)CC3)nc12` [Compound 307], “***** (>2.5° C.=*****)”.
The same measure, in the same setting: in the case of `Cc1cc(N2CC[C@](C)(c3ccccc3)C2)cn2nc(C(=O)N3CC4(CCC4Oc4cccc(C(=O)O)n4)C3)nc12` (some centres unmarked) [Compound 216] it was “***** (>2.5° C.=*****)”.
Same read-out and setting: for `Cc1cc(N2CCC(C)(c3ccc(F)cc3)C2)cn2nc(C(=O)NC3CCN(c4ccnc(C(=O)O)c4)CC3)nc12` (centres unmarked) [Compound 422] the value was “***** (>2.5° C.=*****)”.
With `COC(=O)C1C2CN(C3CCC34CC(NC(=O)c3nc5c(C)cc(N6CC[C@](C)(c7ccccc7)C6)cn5n3)C4)CC21` (some centres unmarked) [Compound 372], the DSF entry was “***** (>2.5° C.=*****)”.
Same read-out and setting: in the case of `Cc1cc(N2CC[C@](C)(c3ccccc3)C2)cn2nc(C34CCC(N)(CC3)CO4)nc12` [Compound 64] it was “***** (>2.5° C.=*****)”.
Still for that read-out and setting: for `Cc1cc(N2CC[C@](C)(c3ccccc3)C2)cn2nc(C(=O)N[C@@H]3CCC[C@@H]3O)nc12` [Compound 142] the value was “***** (>2.5° C.=*****)”; for `Cc1cc(N2CC[C@](c3ccccc3)(C(F)F)C2)cn2nc(C(=O)NCC(C)(C)O)nc12` [Compound 28, 6-[(3R)-3-(difluoromethyl)-3-phenyl-pyrrolidin-1-yl]-N-(2-hydroxy-2-methyl-propyl)-8-methyl-[1,2,4]triazolo[1,5-a]pyridine-2-carboxamide], “**** (>1.5-2.5° C.=****)”.
On the same count and under the same terms, for `C[C@]1(c2ccccc2)CCN(c2cc(O)c3nc(C(=O)N4CC[C@@]5(CCN(c6cccc(C(=O)O)n6)C5)C4)nn3c2)C1` [Compound 293] the value was “**** (>1.5-2.5° C.=****)”.
As for `Cc1cc(N2CC[C@](C)(c3ccccc3)C2)cn2nc(C(=O)NC3CCOCC3)nc12` [Compound 198], the DSF entry was “***** (>2.5° C.=*****)”.

The same experiment, now with this note: Table B; temperature shift [Tm]compound-[Tm]vehicle; recombinant WIL-FL T46L.
Consider `Cc1cc(N2CC[C@](C)(c3ccccc3)C2)cn2nc(C(=O)N3CCC4(CCC(C(=O)O)O4)C3)nc12` (some centres unmarked) [Compound 594], for which the DSF entry is listed as “***** (>2.5° C.=*****)”.
The same measure, in the same setting: in the case of `COC(C)(CS(=O)(=O)Nc1n[nH]c(C2C3COC2(c2nc4c(C)cc(N5CC[C@](C)(c6ccccc6)C5)cn4n2)C3)n1)C(=O)O` (some centres unmarked) [Compound 567] it was “**** (>1.5-2.5° C.=****)”.
On the same count and under the same terms, for `Cc1cc(N2CC[C@](C)(c3ccccc3)C2)cn2nc(C(=O)NC3CN(c4cccc(C(=O)O)n4)CC3O)nc12` (some centres unmarked) [Compound 684] the value was “***** (>2.5° C.=*****)”; for `Cc1cc(N2CC[C@](C)(c3ccccc3)C2)cn2nc(C34CC(CO3)C4c3nc(NC(=O)c4cccnc4C(=O)O)n[nH]3)nc12` (some centres unmarked) [Compound 558], “***** (>2.5° C.=*****)”; for `Cc1cc(N2CC[C@](C)(c3ccccc3)C2)cn2nc(C(=O)N3CCC4(CCN(c5nccc(C(=O)O)n5)C4)C3)nc12` (some centres unmarked) [Compound 716], “***** (>2.5° C.=*****)”.
Still for that read-out and setting: for `Cc1cc(N2CC[C@](C)(c3ccccc3)C2)cn2nc(C(=O)N3CCC4(CCN(c5ccc(C(N)=O)c(C(=O)O)n5)C4)C3)nc12` (some centres unmarked) [Compound 610] the value was “***** (>2.5° C.=*****)”; for `Cc1cc(N2CC[C@](C)(c3ccccc3)C2)cn2nc(C(=O)NC3CC[C@@H]3Nc3cccc(C(=O)O)n3)nc12` (some centres unmarked) [Compound 635], “***** (>2.5° C.=*****)”; for `Cc1cc(N2CC[C@](C)(c3cccc(F)c3)C2)cn2nc(C(=O)NC3CCN(c4cccc(C(=O)O)n4)CC34COC4)nc12` (some centres unmarked) [Compound 700], “***** (>2.5° C.=*****)”.
With `Cc1cc(N2CC[C@](C)(c3ccccc3)C2)cn2nc(C(=O)N3CCC4(CC(=O)N(c5cccc(C(=O)O)n5)C4)C3)nc12` (stereo partly drawn) [Compound 671, 6-[7-[8-methyl-6-[(3R)-3-methyl-3-phenyl-pyrrolidin-1-yl]-[1,2,4]triazolo[1,5-a]pyridine-2-carbonyl]-3-oxo-2,7-diazaspiro[4.4]nonan-2-yl]pyridine-2-carboxylic acid], the DSF result is listed as “***** (>2.5° C.=*****)”.
With `Cc1cc(N2CC[C@](C)(c3ccccc3)C2)cn2nc(C34CC(C(=O)O)(CO3)C4C(=O)O)nc12` (stereo partly drawn) [Compound 537, 1-(8-methyl-6-((R)-3-methyl-3-phenylpyrrolidin-1-yl)-[1,2,4]triazolo[1,5-a]pyridin-2-yl)-2-oxabicyclo[2.1.1]hexane-4,5-dicarboxylic acid], the DSF result is given as “**** (>1.5-2.5° C.=****)”.
On the same count and under the same terms, in the case of `Cc1cc(N2CC[C@](C)(c3ccccc3)C2)cn2nc(C(=O)N3CC(CNc4cccc(C(=O)O)n4)C(C)(O)C3)nc12` (stereo partly drawn) [Compound 696, 6-(((4-hydroxy-4-methyl-1-(8-methyl-6-((R)-3-methyl-3-phenylpyrrolidin-1-yl)-[1,2,4]triazolo[1,5-a]pyridine-2-carbonyl)pyrrolidin-3-yl)methyl)amino)picolinic acid] it was “***** (>2.5° C.=*****)”.
Still for that read-out and setting: for `Cc1cc(N2CC3(CCC3c3cccc(Cl)c3)C2)cn2nc(C(=O)N3CC[C@@]4(CCN(c5cccc(C(=O)O)n5)C4)C3)nc12` (some centres unmarked) [Compound 740] the value was “**** (>1.5-2.5° C.=****)”.
Still for that read-out and setting: for `Cc1cc(N2CC[C@](C)(c3ccccc3)C2)cn2nc(C(=O)NC3CN(c4cccc(C(=O)O)n4)C4(COC4)C3)nc12` (stereo partly drawn) [Compound 664, 6-[7-[[8-methyl-6-[(3R)-3-methyl-3-phenyl-pyrrolidin-1-yl]-[1,2,4]triazolo[1,5-a]pyridine-2-carbonyl]amino]-2-oxa-5-azaspiro[3.4]octan-5-yl]pyridine-2-carboxylic acid] the value was “***** (>2.5° C.=*****)”; for `Cc1cc(N2CC[C@](C)(c3ccccc3)C2)cn2nc(C34CC(CO3)C4NC3(C#N)CC3)nc12` (stereo partly drawn) [Compound 530, 1-((1-(8-methyl-6-((R)-3-methyl-3-phenylpyrrolidin-1-yl)-[1,2,4]triazolo[1,5-a]pyridin-2-yl)-2-oxabicyclo[2.1.1]hexan-5-yl)amino)cyclopropane-1-carbonitrile], “***** (>2.5° C.=*****)”; for `Cc1cc(N2CC[C@](C)(c3ccc(F)c(Cl)c3)C2)cn2nc(C(=O)N3CC[C@@]4(CCN(c5cccc(C(=O)O)n5)C4)C3)nc12` [Compound 748], “***** (>2.5° C.=*****)”.
